Laboratory results published in ChEMBL document CHEMBL5537195, “Novel Covalent Probe Selectively Targeting Glutathione Peroxidase 4 In Vivo: Potential Applications in Pancreatic Cancer Therapy” (J Med Chem, 2024).
Activity calls are given as the source filed them. No cut-off for these calls is given here.

Legend:
[1] = tested on: CFPAC-1; assay: Antiproliferative activity against human CFPAC-1 cells assessed as inhibition of cell growth incubated for 72 hrs by CCK-8 assay; assay type: functional, cell-based; details: CFPAC-1, 72 h
[2] = tested on: PANC-1; assay: Antiproliferative activity against human PANC-1 cells assessed as inhibition of cell growth incubated for 72 hrs by CCK-8 assay; assay type: functional, cell-based; details: PANC-1, 72 h
[3] = tested on: BXPC-3; assay: Antiproliferative activity against human BXPC-3 cells assessed as inhibition of cell growth incubated for 72 hrs by CCK-8 assay; assay type: functional, cell-based; details: BXPC-3, 72 h
[4] = tested on: HPAF-II; assay: Antiproliferative activity against human HPAF-II cells assessed as inhibition of cell growth incubated for 72 hrs by CCK-8 assay; assay type: functional, cell-based
[5] = tested on: SW1990; assay: Antiproliferative activity against human SW1990 cells assessed as inhibition of cell growth incubated for 72 hrs by CCK-8 assay; assay type: functional, cell-based; details: SW1990, 72 h
[6] = Half life in Sprague-Dawley rat at 2 mg/kg, iv measured upto 48 hrs by LC-MS/MS analysis; assay type: ADME, organism-based; details: in vivo
[7] = Toxicity in NOD-SCID mouse xenografted with human ASPC1 cells assessed as body weight loss at 10 mg/kg, ip administered for once daily for 14 days; assay type: organism-based; details: in vivo, 336 h, time 14 day
[8] = tested on: ASPC1; assay: Antitumor activity against human ASPC1 cells xenografted in NOD-SCID mouse assessed as reduction in tumor weight at 10 mg/kg, ip administered for 14 days; assay type: functional, organism-based; details: time 14.0 day
[9] = tested on: ASPC1; assay: Antitumor activity against human ASPC1 cells xenografted in NOD-SCID mouse assessed as reduction in tumor volume at 10 mg/kg, ip administered for 14 days; assay type: functional, organism-based; details: time 14.0 day
[10] = tested on: ASPC1; assay: Antitumor activity against human ASPC1 cells xenografted in NOD-SCID mouse assessed as tumor growth inhibition at 10 mg/kg, ip administered for 14 days; assay type: functional; details: ASPC1, 336 h, time 14 day, read-out: TGI
[11] = molecular target: T1, Phospholipid hydroperoxide glutathione peroxidase GPX4 (Homo sapiens) (UniProt P36969); assay: Binding affinity to GPX4 in human ASPC1 cells at 0.2 uM by SDS-PAGE analysis; assay type: cell-based; details: time 0.1 hrs, TDE = time-dependent effect
T1 sequence (whole entry): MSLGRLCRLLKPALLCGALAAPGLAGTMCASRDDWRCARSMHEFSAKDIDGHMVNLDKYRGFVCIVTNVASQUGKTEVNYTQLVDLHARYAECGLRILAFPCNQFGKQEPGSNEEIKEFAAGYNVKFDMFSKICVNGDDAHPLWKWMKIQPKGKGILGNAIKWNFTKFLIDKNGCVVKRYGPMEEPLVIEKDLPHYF

[12] = molecular target: T1, Phospholipid hydroperoxide glutathione peroxidase GPX4 (Homo sapiens); assay: Binding affinity to GPX4 in human ASPC1 cells at 0.2 uM incubated for 1 hr in presence of N-ethynyl-N-methyl-4-((methyl(4(trifluoromethyl)phenyl)amino)methyl)benzenesulfonamide by SDS-PAGE analysis; assay type: cell-based
[13] = molecular target: T1, Phospholipid hydroperoxide glutathione peroxidase GPX4 (Homo sapiens); assay: Binding affinity to GPX4 in human CFPAC-1 cells at 0.2 uM incubated for 1 hr by SDS-PAGE analysis; assay type: cell-based
[14] = molecular target: T1, Phospholipid hydroperoxide glutathione peroxidase GPX4 (Homo sapiens); assay: Binding affinity to GPX4 in human HPAF-II cells at 0.2 uM incubated for 1 hr by SDS-PAGE analysis; assay type: cell-based
[15] = molecular target: T1, Phospholipid hydroperoxide glutathione peroxidase GPX4 (Homo sapiens); assay: Binding affinity to GPX4 in human PANC-1 cells at 0.2 uM incubated for 1 hr by SDS-PAGE analysis; assay type: cell-based
[16] = molecular target: T1, Phospholipid hydroperoxide glutathione peroxidase GPX4 (Homo sapiens); assay: Binding affinity to GPX4 in human Hs766T cells at 0.2 uM incubated for 1 hr by SDS-PAGE analysis; assay type: cell-based
[17] = molecular target: T2, Fructose-bisphosphate aldolase A (Homo sapiens) (UniProt P04075); assay: Binding affinity to ALDOA in human ASPC1 cells at 1 uM incubated for 5 hrs by Western blot analysis; assay type: cell-based
T2 sequence (whole entry): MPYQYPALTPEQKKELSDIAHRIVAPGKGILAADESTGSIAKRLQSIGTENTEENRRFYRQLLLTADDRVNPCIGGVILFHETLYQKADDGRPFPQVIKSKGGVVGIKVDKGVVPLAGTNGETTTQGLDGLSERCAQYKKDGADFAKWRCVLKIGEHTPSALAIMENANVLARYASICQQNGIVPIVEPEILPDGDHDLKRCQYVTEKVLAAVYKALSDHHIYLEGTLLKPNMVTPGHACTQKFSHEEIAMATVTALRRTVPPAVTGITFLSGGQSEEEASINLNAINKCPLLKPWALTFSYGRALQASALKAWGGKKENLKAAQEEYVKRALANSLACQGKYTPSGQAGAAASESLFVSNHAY

[18] = molecular target: T1, Phospholipid hydroperoxide glutathione peroxidase GPX4 (Homo sapiens); assay: Competitive binding affinity to GPX4 in human ASPC1 cells at 0.2 uM incubated for 1 hr in presence of 4-(((4-(benzo[d]thiazol-2-yl)phenyl)(methyl)amino)methyl)-N-ethynyl-N-methylbenzenesulfonamide; assay type: cell-based
[19] = molecular target: T1, Phospholipid hydroperoxide glutathione peroxidase GPX4 (Homo sapiens); assay: Binding affinity to GPX4 in human ASPC1 cells at 0.2 uM incubated for 1 hr by immunofluorescence based confocal microscopic analysis; assay type: cell-based
[20] = molecular target: T1, Phospholipid hydroperoxide glutathione peroxidase GPX4 (Homo sapiens); assay: Competitive binding affinity to GPX4 in human ASPC1 cells at 0.2 uM incubated for 1 hr in presence of 4-(((4-(benzo[d]thiazol-2-yl)phenyl)(methyl)amino)methyl)-N-ethynyl-N-methylbenzenesulfonamide by immunofluorescence based confocal microscopic analysis; assay type: cell-based
[21] = molecular target: T1, Phospholipid hydroperoxide glutathione peroxidase GPX4 (Homo sapiens); assay: Competitive binding affinity to GPX4 in human ASPC1 cells at 0.2 uM incubated for 1 hr in presence of ML210 by immunofluorescence based confocal microscopic analysis; assay type: cell-based
[22] = tested on: ASPC1; assay: Induction of ferroptosis in human ASPC1 cells assessed as cell death at 2 uM in presence of Ferrostatin-1; assay type: functional, cell-based
[23] = tested on: ASPC1; assay: Induction of ferroptosis in human ASPC1 cells assessed as cell death at 2 uM in presence of Z-VAD-FMK; assay type: functional, cell-based
[24] = tested on: ASPC1; assay: Induction of apoptosis in human ASPC1 cells at 20 to 200 nM incubated for 48 hrs by FITC based flow cytometry analysis; assay type: functional, cell-based; details: dose 20-200 nM
[25] = tested on: ASPC1; assay: Induction of ferroptosis in human ASPC1 cells assessed as effect on ROS level at 1 uM incubated for 3 hrs in presence of […]; assay type: functional, cell-based
[26] = tested on: NCI-H522; assay: Induction of ferroptosis in human NCI-H522 cells assessed as reduction in cell viability incubated for 72 hrs by CCK-8 assay; assay type: functional, cell-based; details: NCI-H522, 72 h
[27] = tested on: HCT-116; assay: Induction of ferroptosis in human HCT-116 cells assessed as reduction in cell viability incubated for 72 hrs by CCK-8 assay; assay type: functional, cell-based; details: HCT-116, 72 h
[28] = tested on: ASPC1; assay: Induction of ferroptosis in human ASPC1 cells assessed as reduction in cell viability incubated for 24 hrs by CCK-8 assay; assay type: functional, cell-based; details: ASPC1, 24 h
[29] = tested on: ASPC1; assay: Induction of ferroptosis in human ASPC1 cells assessed as reduction in cell viability incubated for 48 hrs followed by compound washout by CCK-8 assay; assay type: functional, cell-based; details: ASPC1, 48 h
[30] = tested on: ASPC1; assay: Induction of ferroptosis in human ASPC1 cells with siRNA mediated GPX4 knockdown assessed as reduction in cell viability incubated for 72 hrs by CCK-8 assay; assay type: functional, cell-based
[31] = tested on: Mus musculus; assay: In vivo target engagement at GPX4 in SCID mouse at 10 mg/kg, ip qd administered for 14 days and measured after 2 hrs by SDS-PAGE analysis; assay type: functional, organism-based; details: time 14.0 day

Work on C#CCN(Cc1ccc(S(=O)(=O)N(C)C#C)cc1)c1ccc(-c2nc3ccccc3s2)cc1 yielded an IC50 [1] of 20 nM, an IC50 [2] of 20 nM and an IC50 [3] of 20 nM. It also gave an IC50 [4] of 20 nM, an IC50 [5] of 20 nM and a half-life [6] of 2.55 h. The Activity [7] was “Non-Toxic”, the Activity [8] was “Active” and the Activity [9] was “Active”. For the same molecule, the inhibition in vivo at 10 mg/kg [10] was 28%, the Activity [11] was “Tde” and the Activity [12] was “Active”. For the same molecule, the Activity [13] was “Active”, the Activity [14] was “Active” and the Activity [15] was “Active”. The Activity [16] was “Active”, the Activity [17] was “Active” and the Activity [18] was “Active”. The Activity [19] was “Active”, the Activity [20] was “inactive” and the Activity [21] was “inactive”. The Activity [22] was “inactive”, the Activity [23] was “inactive” and the Activity [24] was “inactive”. For the same molecule, the Activity [25] was “Active”, the IC50 [26] was 3 nM and the IC50 [27] was > 10000 nM. For the same molecule, the IC50 [28] was 37 nM, the IC50 [29] was 33 nM and the Activity [30] was “Active”. The Activity [31] was “Active”.
